We go through 95 sequences from the OligoGym collection.

Bases are written 5' to 3'; sugars and linkages follow in the same order, as letters with counts (s phosphorothioate, o phosphodiester; PS: all linkages phosphorothioate). The collection does not say whether C is 5-methylated. l = locked nucleic acid (LNA); d = 2'-deoxy (DNA)

For the data set, the target named is Tau. Description: rat primary cortical neurons, FLIPR, 25 uM ASO.
Regarding CATAGTCACTCTGGTG (sugars l3 d10 l3, PS), the calcium oscillation score was 1.9 % of control.

Turning to “CTATTCCTGAATTTTTC (sugars l4 d10 l3, PS)”, the calcium oscillation score was 69 % of control.

With TTTGAAGTCCCGAGCC (sugars l3 d10 l3, PS), the calcium oscillation score was 22.4 % of control.

“ACTTTATTTCCAAATTCACTTTTAC (sugars l4 d16 l2 d1 l2, PS)”: the calcium oscillation score is 29.5 % of control.

Regarding “ACCTTTTTCCATCTTACTAA (sugars l4 d13 l3, PS)”, the calcium oscillation score was 52 % of control.

With TTTGTAGACTATTTG (sugars l3 d9 l3, PS), the calcium oscillation score was 0 % of control.

Consider AACTGCGAGGAGCAGC (sugars l3 d10 l3, PS), for which the calcium oscillation score is 25.9 % of control.

Consider “TACAGTTGGCCCTACCATAT (sugars l3 d14 l3, PS)”, for which the calcium oscillation score is 52.4 % of control.

With “CTTTATTTCCAAATTCACTT (sugars l3 d1 l1 d12 l3, PS)”, the calcium oscillation score was 29.8 % of control.

On to “CTTTTTCTTGTTCTAAC (sugars l2 d11 l4, PS)”, for which the calcium oscillation score is 57.9 % of control.

For the sequence “ACTTTATTTCCAAATTCACT (sugars l5 d11 l4, PS)”, the calcium oscillation score is 138 % of control.

Regarding GAGTGCTCTTAGCATC (sugars l3 d10 l3, PS), the calcium oscillation score was 33.3 % of control.

In the case of “CTTCTAATTTAGTCACC (sugars l3 d10 l4, PS)”, the calcium oscillation score is 54.6 % of control.

Regarding TGGATCAGAGGGTCTG (sugars l3 d10 l3, PS), the calcium oscillation score was 7.41 % of control.

Turning to “CTTTATTTCCAAATTCACT (sugars l5 d9 l1 d2 l2, PS)”, the calcium oscillation score was 104 % of control.

For the sequence “ATCAGCCTTCATCACACT (sugars l4 d12 l2, PS)”, the calcium oscillation score was 87.7 % of control.

Regarding “TTCTCTCTTAACTTTATTTT (sugars l4 d12 l4, PS)”, the calcium oscillation score was 93 % of control.

Consider “TCTTTATTAACACTCCAC (sugars l2 d12 l4, PS)”, for which the calcium oscillation score was 64.6 % of control.

For the sequence “TCTTTGCTTTTACTGACCAT (sugars l3 d14 l3, PS)”, the calcium oscillation score was 29.6 % of control.

As to “AATGTCCAAAAATCCCC (sugars l2 d11 l4, PS)”, the calcium oscillation score is 53 % of control.

Consider “TCCCAGCGTGATCTTCCATC (sugars l5 d11 l4, PS)”, for which the calcium oscillation score was 85.2 % of control.

In the case of “TTTATTTCCAAATTCACTTT (sugars l4 d11 l5, PS)”, the calcium oscillation score is 138 % of control.

On to “CCGAACTGCGAGGAGCAGCT (sugars l3 d14 l3, PS)”, for which the calcium oscillation score is 38.9 % of control.

Take CTAAACCATGATCTTA (sugars l3 d10 l3, PS): the calcium oscillation score is 21.1 % of control.

Take “CATTAACCCTTGATCATATT (sugars l3 d14 l3, PS)”: the calcium oscillation score was 36.3 % of control.

Consider “ACACCTCGTCAGCTAGCGTG (sugars l3 d14 l3, PS)”, for which the calcium oscillation score was 0 % of control.

“CATCTTAATTCATTTAATTC (sugars l4 d12 l4, PS)”: the calcium oscillation score was 84.1 % of control.

As to “TCAGATTTTACTTCCACC (sugars l2 d13 l3, PS)”, the calcium oscillation score was 57.5 % of control.

Turning to “CTCATTTACCAATTATCTTT (sugars l4 d14 l2, PS)”, the calcium oscillation score is 64 % of control.

Regarding “CCCAATCTTCGACTGGACTC (sugars l3 d14 l3, PS)”, the calcium oscillation score is 31.6 % of control.

With “TGGATGTTGCCTAATGAGCC (sugars l3 d14 l3, PS)”, the calcium oscillation score was 0 % of control.

For the sequence AGAAATAAGTGGTAGT (sugars l4 d9 l3, PS), the calcium oscillation score was 89.3 % of control.

As to ATCTCAAGTCTTATTCT (sugars l4 d9 l4, PS), the calcium oscillation score is 48.8 % of control.

For GGACGTTGCTAAGATC (sugars l3 d10 l3, PS), the calcium oscillation score is 3.32 % of control.

Take “TTGTCCAGGGACCCAATCTT (sugars l3 d14 l3, PS)”: the calcium oscillation score is 3.32 % of control.

For “GGGTGATATTGTCCAGGGAC (sugars l3 d14 l3, PS)”, the calcium oscillation score was 0 % of control.

On to “TGGTTTATGATGGATGTTGC (sugars l3 d14 l3, PS)”, for which the calcium oscillation score was 0 % of control.

As for CCCGAGCCAAAGCC (sugars l3 d8 l3, PS), the calcium oscillation score was 52.2 % of control.

With “CAACTGGTTTGTAGACTATT (sugars l3 d14 l3, PS)”, the calcium oscillation score was 6.64 % of control.

On to “CGTCCCAGCGTGATCTTCCA (sugars l5 d11 l4, PS)”, for which the calcium oscillation score is 36.2 % of control.

In the case of “AAACTCATTTACCAATTAT (sugars l4 d11 l4, PS)”, the calcium oscillation score was 70.7 % of control.

For “TCTCAGTGGAGCCGATCTTG (sugars l3 d14 l3, PS)”, the calcium oscillation score was 0 % of control.

CGTGGGTGATATTGTC (sugars l3 d10 l3, PS): the calcium oscillation score was 0 % of control.

On to CCCCAGACCATCAATT (sugars l2 d12 l2, PS), for which the calcium oscillation score is 57.7 % of control.

Take TTCTTGTGATGCAGGA (sugars l3 d10 l3, PS): the calcium oscillation score was 61.3 % of control.

Consider “CCCAGCGTGATCTTCCATCA (sugars ldlllddddddddddlldll, PS)”, for which the calcium oscillation score was 124 % of control.

Turning to CAAACTTTTACTCTGAC (sugars l4 d9 l4, PS), the calcium oscillation score was 63.8 % of control.

Consider CAGGCGCGAGCAGCGG (sugars l3 d10 l3, PS), for which the calcium oscillation score is 49.5 % of control.

With GCAGAGGAACGTGTGG (sugars l3 d10 l3, PS), the calcium oscillation score was 0 % of control.

Consider CCACCTCCTGGTTTAT (sugars l3 d10 l3, PS), for which the calcium oscillation score is 104 % of control.

For CTCTCTGCATATATAAT (sugars l4 d9 l4, PS), the calcium oscillation score was 72.2 % of control.

Turning to GGCATGATTGTGGGCT (sugars l3 d10 l3, PS), the calcium oscillation score is 6.12 % of control.

On to CTTCAGTCCTAATCCT (sugars l3 d10 l3, PS), for which the calcium oscillation score is 95.8 % of control.

As to CCAGGGACCCAATCTT (sugars l3 d10 l3, PS), the calcium oscillation score was 76 % of control.

Turning to “GAGACCACATTATCATCCAT (sugars l3 d14 l3, PS)”, the calcium oscillation score was 52.4 % of control.

In the case of “AATTTACACCCAAACCTAA (sugars l4 d11 l4, PS)”, the calcium oscillation score was 106 % of control.

As for CGTGATCTTCCATC (sugars l3 d8 l3, PS), the calcium oscillation score was 85.1 % of control.

As for “CCCGCCTTTAGTGATTACAG (sugars l3 d14 l3, PS)”, the calcium oscillation score is 2.38 % of control.

For the sequence “TAAGTGATTAACCAATTAAC (sugars l3 d14 l3, PS)”, the calcium oscillation score was 27.2 % of control.

With “CATGATTAATTACACCC (sugars l3 d11 l3, PS)”, the calcium oscillation score was 35.5 % of control.

On to “ATTCACACAACAAACTATT (sugars l4 d11 l4, PS)”, for which the calcium oscillation score was 74.5 % of control.

As to “AATTTATTAATTCATAAATG (sugars l3 d14 l3, PS)”, the calcium oscillation score is 38.3 % of control.

“CATCAATTTGGAAAGATGAA (sugars l3 d14 l3, PS)”: the calcium oscillation score was 62.5 % of control.

Consider “CCCAGCGTGATCTTCCATCA (sugars l3 d14 l3, PS)”, for which the calcium oscillation score is 104 % of control.

As for GAGGCACAAGTCCTTA (sugars l3 d10 l3, PS), the calcium oscillation score was 76.2 % of control.

Regarding “CCAATTATCTTTAAATTCTA (sugars l4 d13 l3, PS)”, the calcium oscillation score is 70.7 % of control.

For “GGATGTTGCCTAATGAGCCA (sugars l3 d14 l3, PS)”, the calcium oscillation score is 0 % of control.

As for “TTTAATTCACACAACAAACT (sugars l4 d12 l4, PS)”, the calcium oscillation score was 89.1 % of control.

Turning to CAAACCAGTTACCATCA (sugars l4 d9 l4, PS), the calcium oscillation score is 87.7 % of control.

Turning to “AACTCATCAACACCTTTTAA (sugars l3 d13 l4, PS)”, the calcium oscillation score was 70.8 % of control.

In the case of TCGATGCTGCCGGTGG (sugars l3 d10 l3, PS), the calcium oscillation score is 33.9 % of control.

Regarding CCTTAATTTCACCCT (sugars l3 d9 l3, PS), the calcium oscillation score is 140 % of control.

For “CTCATTTTTCTCAAGCTC (sugars l3 d12 l3, PS)”, the calcium oscillation score was 44.8 % of control.

In the case of “ATTTATTCTTTTTATTATTT (sugars l4 d12 l4, PS)”, the calcium oscillation score was 59.6 % of control.

Regarding “CTCAAGAAATGGTTTGCTAC (sugars l3 d14 l3, PS)”, the calcium oscillation score was 23.8 % of control.

As to “CTCGCGGAAGGTCAGCTTGT (sugars l3 d14 l3, PS)”, the calcium oscillation score was 2.91 % of control.

With AATAAGAAAGGAACGC (sugars l3 d10 l3, PS), the calcium oscillation score was 110 % of control.

For the sequence GACTTGTACACGAT (sugars l3 d8 l3, PS), the calcium oscillation score was 112 % of control.

For “GCCCACCCATCAATTTGGAA (sugars l3 d14 l3, PS)”, the calcium oscillation score was 1.3 % of control.

“CTCTTAGCATCCACTTA (sugars l3 d12 l2, PS)”: the calcium oscillation score was 44.5 % of control.

“TTCTCAGCACACCATTA (sugars l3 d12 l2, PS)”: the calcium oscillation score is 60.1 % of control.

Take “CCTTTTCTACTCTACTC (sugars l3 d12 l2, PS)”: the calcium oscillation score is 70.9 % of control.

In the case of “CAGCACACAGGCAGCCACTG (sugars l3 d14 l3, PS)”, the calcium oscillation score was 23.8 % of control.

For the sequence CCAATTGTCACATTAA (sugars l4 d8 l4, PS), the calcium oscillation score was 63.1 % of control.

As for “ACATCTAAACACCTCAATCC (sugars l2 d15 l3, PS)”, the calcium oscillation score is 73.2 % of control.

With “CTCCCTTTAATGCCAGGCCC (sugars l3 d14 l3, PS)”, the calcium oscillation score is 20.1 % of control.

Regarding TTCATCACCAAGTCCC (sugars l3 d11 l2, PS), the calcium oscillation score is 51.4 % of control.

For “TTTTCCCAATTATTAACCC (sugars l3 d14 l2, PS)”, the calcium oscillation score was 71.4 % of control.

On to CGCAGGCGCGAGCA (sugars l3 d8 l3, PS), for which the calcium oscillation score was 102 % of control.

Take TAATCACTCATGCCTTA (sugars l4 d9 l4, PS): the calcium oscillation score was 62.9 % of control.

With CTCACCCCAAACAAGA (sugars l3 d10 l3, PS), the calcium oscillation score is 65.6 % of control.

Take TATTAATTATCTGCAC (sugars l3 d10 l3, PS): the calcium oscillation score is 27.1 % of control.

Consider CTTCCAGTCCCGTCTT (sugars l3 d10 l3, PS), for which the calcium oscillation score was 0 % of control.

Take “CACCATCCAAGTCAATGCCT (sugars l3 d14 l3, PS)”: the calcium oscillation score is 24.2 % of control.

On to TGGCTTTGGCGTTCTC (sugars l3 d10 l3, PS), for which the calcium oscillation score was 28.7 % of control.
